According to patent US20250214991A1 (Oncopia Therapeutics, Inc. d/b/a/ SK Life Science Labs, priority 2022, published 2025):

Experiments:
CRBN/DDB1 = CRBN/DDB1 (Homo sapiens (Human), UniProt Q96SW2); experiment: IC50 measurements for binding to CRBN/DDB1 (HTRF); conditions: His tagged CRBN+DDB, Cy5-labeled Thalidomide probe, one hour
In short: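 HTRF competition binding with 2 nM His-tagged CRBN-DDB1 complex, 60 nM Cy5-thalidomide probe and 0.4 nM anti-His Tb cryptate in 50 mM HEPES pH 7.5, 1 mM TCEP, 0.01% Brij-35, 50 mM NaCl, 0.1% BSA. Read after 1 h at room temperature; IC50 from four-parameter dose-response fit.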

IKZF2 = IKZF2 (Homo sapiens (Human), UniProt Q96SW2+Q9UKS7); experiment: In vitro IKZF2 Western Blot Assay in Jurkat cells; format: cell-based; conditions: 24 hrs; for inhibition at 0.001 µM: read-out: IKZF2 degradation (%) @ μM 0.001; for inhibition at 0.01 µM: read-out: IKZF2 degradation (%) @ μM 0.01; for inhibition at 0.1 µM: read-out: IKZF2 degradation (%) @ μM 0.1; for inhibition at 1 µM: read-out: IKZF2 degradation (%) @ μM 1; for inhibition at 10 µM: read-out: IKZF2 degradation (%) @ μM 10
Method: In vitro IKZF2 Western Blot Assay Jurkat cells (ATCC, Cat #HB-8065) were cultured in RPMI1640+10% FBS+1% P/S. Cells were treated at desired compound concentrations (0.001, 0.01, 0.1, 1, and 10 μM) and DMSO as vehicle control for 24 hrs. After 24 hr of treatment cells were collected by centrifugation and lysed in RIPA lysis buffer on ice for 10 min. After assessing protein concentration by BCA assay (Pierce), equal amounts of protein for each sample were loaded into 4-12% Bis-Tris gels (Invitrogen), transferred to PVDF membranes and immunoblotted with antibodies against IKZF2 and Actin (Cell Signaling). Membranes were developed on an Odyssey detection system (LI-COR Biosciences) after incubation with IRDye800-labeled goat anti-rabbit IgG and IRDye680-labeled goat anti-mouse IgG (LI-COR) secondary antibodies. Band intensities were quantified using ImageStudio software. Data was further analyzed using XLfit. Percentage of IKZF2 protein degradation: A (>50%); B (30-50%); C(<30%) (Table 2).

Sequence of CRBN/DDB1 (Q96SW2 whole entry, species assumed): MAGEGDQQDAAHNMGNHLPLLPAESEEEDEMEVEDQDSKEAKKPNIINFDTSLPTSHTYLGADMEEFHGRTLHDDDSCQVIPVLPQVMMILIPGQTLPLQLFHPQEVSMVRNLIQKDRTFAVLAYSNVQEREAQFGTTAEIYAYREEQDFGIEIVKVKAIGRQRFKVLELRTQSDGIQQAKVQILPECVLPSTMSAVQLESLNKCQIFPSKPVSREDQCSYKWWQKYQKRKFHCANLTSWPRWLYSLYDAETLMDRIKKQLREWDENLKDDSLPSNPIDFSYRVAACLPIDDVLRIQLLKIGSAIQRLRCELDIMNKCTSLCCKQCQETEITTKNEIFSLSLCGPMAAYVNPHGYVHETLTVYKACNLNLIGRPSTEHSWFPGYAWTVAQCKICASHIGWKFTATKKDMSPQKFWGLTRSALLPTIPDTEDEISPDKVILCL
Sequence of CRBN/DDB1 (Q16531 whole entry partner, species assumed): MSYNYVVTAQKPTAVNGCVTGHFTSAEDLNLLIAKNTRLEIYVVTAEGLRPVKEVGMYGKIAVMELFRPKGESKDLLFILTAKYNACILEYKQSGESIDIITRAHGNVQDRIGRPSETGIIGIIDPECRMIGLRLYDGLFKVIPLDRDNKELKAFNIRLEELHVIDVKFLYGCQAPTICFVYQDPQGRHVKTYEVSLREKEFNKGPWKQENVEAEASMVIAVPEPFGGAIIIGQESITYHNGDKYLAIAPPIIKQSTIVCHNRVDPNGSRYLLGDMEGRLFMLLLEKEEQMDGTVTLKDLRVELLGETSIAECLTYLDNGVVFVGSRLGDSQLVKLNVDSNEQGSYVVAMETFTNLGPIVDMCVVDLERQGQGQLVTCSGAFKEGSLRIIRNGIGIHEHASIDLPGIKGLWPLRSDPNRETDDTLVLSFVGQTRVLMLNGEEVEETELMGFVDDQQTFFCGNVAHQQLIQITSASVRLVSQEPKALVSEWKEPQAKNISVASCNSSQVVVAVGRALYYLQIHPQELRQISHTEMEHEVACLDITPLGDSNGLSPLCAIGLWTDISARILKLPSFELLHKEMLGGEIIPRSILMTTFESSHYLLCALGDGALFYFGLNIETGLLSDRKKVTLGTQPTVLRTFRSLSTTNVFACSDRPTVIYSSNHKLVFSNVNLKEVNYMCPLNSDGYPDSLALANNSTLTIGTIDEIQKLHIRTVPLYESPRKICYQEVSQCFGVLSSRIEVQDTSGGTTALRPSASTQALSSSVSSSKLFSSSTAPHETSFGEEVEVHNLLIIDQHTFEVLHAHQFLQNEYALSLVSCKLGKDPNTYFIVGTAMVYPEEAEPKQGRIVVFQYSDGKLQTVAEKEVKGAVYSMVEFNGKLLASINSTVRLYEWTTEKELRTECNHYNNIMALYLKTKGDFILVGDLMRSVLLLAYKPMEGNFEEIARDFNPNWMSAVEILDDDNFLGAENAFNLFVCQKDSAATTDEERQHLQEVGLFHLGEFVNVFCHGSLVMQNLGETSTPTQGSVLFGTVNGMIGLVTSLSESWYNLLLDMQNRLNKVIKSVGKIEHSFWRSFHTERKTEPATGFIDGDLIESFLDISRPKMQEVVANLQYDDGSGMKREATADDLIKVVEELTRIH
Sequence of IKZF2 (Q9UKS7 whole entry): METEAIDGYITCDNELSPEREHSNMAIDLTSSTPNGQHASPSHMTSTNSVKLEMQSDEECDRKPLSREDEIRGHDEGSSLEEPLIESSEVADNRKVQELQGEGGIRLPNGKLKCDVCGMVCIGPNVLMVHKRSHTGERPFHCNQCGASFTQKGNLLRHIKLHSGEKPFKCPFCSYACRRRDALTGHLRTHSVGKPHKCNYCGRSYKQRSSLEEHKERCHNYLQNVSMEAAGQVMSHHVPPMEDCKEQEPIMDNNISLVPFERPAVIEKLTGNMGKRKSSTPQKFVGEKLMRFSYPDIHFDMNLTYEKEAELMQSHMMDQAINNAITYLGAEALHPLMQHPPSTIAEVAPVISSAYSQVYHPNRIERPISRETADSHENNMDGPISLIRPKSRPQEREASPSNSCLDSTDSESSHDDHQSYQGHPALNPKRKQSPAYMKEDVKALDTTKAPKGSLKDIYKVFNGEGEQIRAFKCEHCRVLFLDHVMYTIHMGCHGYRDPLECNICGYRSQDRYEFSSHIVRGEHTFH
Sequence of IKZF2 (Q96SW2 whole entry): as the sequence (Q96SW2 whole entry, species assumed) above
Sequence of IKZF2 (Q16531 2-1140 partner): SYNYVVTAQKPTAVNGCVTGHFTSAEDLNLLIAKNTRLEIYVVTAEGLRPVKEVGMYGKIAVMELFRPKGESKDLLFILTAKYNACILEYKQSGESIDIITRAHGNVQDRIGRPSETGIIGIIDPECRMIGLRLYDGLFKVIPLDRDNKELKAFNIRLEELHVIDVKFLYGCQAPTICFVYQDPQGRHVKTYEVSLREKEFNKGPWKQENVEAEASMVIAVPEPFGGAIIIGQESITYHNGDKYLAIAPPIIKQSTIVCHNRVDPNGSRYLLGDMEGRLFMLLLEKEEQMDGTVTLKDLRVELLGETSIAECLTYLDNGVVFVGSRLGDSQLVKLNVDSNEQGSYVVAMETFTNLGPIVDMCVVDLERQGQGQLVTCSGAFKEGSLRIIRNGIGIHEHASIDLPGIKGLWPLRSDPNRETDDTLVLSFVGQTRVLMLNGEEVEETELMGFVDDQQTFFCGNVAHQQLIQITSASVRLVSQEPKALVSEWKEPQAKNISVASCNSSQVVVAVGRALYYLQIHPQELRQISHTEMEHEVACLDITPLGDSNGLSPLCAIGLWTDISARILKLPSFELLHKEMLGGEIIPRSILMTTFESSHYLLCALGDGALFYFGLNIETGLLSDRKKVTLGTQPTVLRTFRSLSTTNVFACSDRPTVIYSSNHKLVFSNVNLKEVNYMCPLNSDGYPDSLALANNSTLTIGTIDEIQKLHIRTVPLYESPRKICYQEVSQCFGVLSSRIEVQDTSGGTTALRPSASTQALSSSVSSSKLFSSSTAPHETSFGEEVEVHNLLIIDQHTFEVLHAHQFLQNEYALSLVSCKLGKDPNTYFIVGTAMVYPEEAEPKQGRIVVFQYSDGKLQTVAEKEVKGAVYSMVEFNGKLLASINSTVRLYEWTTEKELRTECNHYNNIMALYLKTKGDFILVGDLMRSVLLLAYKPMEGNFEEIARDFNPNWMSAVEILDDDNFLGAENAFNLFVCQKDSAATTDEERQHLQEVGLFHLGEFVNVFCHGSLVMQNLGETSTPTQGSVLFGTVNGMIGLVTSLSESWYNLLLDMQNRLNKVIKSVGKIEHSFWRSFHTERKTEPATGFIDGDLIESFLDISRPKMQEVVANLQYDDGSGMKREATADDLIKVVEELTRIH

Row | SMILES | IC50 (CRBN/DDB1) [nM] | inhibition at 0.001 µM (IKZF2) [%] | inhibition at 0.01 µM (IKZF2) [%] | inhibition at 0.1 µM (IKZF2) [%] | inhibition at 1 µM (IKZF2) [%] | inhibition at 10 µM (IKZF2) [%]
1 | O=C1CCC(N2Cc3cc(-c4cc(CNCc5ccccc5Cl)cn5ccnc45)ccc3C2=O)C(=O)N1 (stereo not drawn) [Example 38, 3-(5-(6-(((2-chlorobenzyl)amino)methyl)imidazo[1,2-a]pyridin-8-yl)-1-oxoisoindolin-2-yl) piperidine-2,6-dione] | 100 to 500 | < 30 | < 30 | < 30 | < 30 | < 30
2 | O=C1CCC(N2Cc3cc(-c4cc(CNCCc5c(F)cccc5F)cn5ccnc45)ccc3C2=O)C(=O)N1 (stereo not drawn) [Example 39, 3-(5-(6-(((2,6-difluorophenethyl)amino)methyl)imidazo[1,2-a]pyridin-8-yl)-1-oxoisoindolin-2-yl) piperidine-2,6-dione] | < 100 | < 30 | < 30 | < 30 | < 30 | < 30
3 | O=C1CCC(N2Cc3cc(-c4cc(CNCCc5ccc(Cl)cc5Cl)cn5ccnc45)ccc3C2=O)C(=O)N1 (stereo not drawn) [Example 40, 3-(5-(6-(((2,4-dichlorophenethyl)amino)methyl)imidazo[1,2-a]pyridin-8-yl)-1-oxoisoindolin-2-yl) piperidine-2,6-dione] | 100 to 500 | < 30 | < 30 | < 30 | < 30 | 30 to 50
4 | O=C1CCC(N2Cc3cc(-c4cc(CNCCc5c(Cl)cccc5Cl)cn5ccnc45)ccc3C2=O)C(=O)N1 (stereo not drawn) [Example 41, 3-(5-(6-(((2,6-dichlorophenethyl)amino)methyl)imidazo[1,2-a]pyridin-8-yl)-1-oxoisoindolin-2-yl) piperidine-2,6-dione] | 100 to 500 | < 30 | < 30 | < 30 | < 30 | < 30
5 | Cc1ccccc1CCNCc1cc(-c2ccc3c(c2)CN(C2CCC(=O)NC2=O)C3=O)c2nccn2c1 (stereo not drawn) [Example 42, 3-(5-(6-(((2-methylphenethyl)amino)methyl)imidazo[1,2-a]pyridin-8-yl)-1-oxoisoindolin-2-yl) piperidine-2,6-dione] | < 100 | < 30 | < 30 | < 30 | < 30 | 30 to 50
6 | O=C1CCC(N2Cc3cc(-c4cc(CNCCc5ccccc5C(F)(F)F)cn5ccnc45)ccc3C2=O)C(=O)N1 (stereo not drawn) [Example 43] | < 100 | < 30 | < 30 | < 30 | < 30 | < 30
7 | O=C1CCC(N2Cc3cc(-c4cc(CNCCc5ccccc5Cl)cn5ccnc45)ccc3C2=O)C(=O)N1 (stereo not drawn) [Example 44, 3-(5-(6-(((2-chlorophenethyl)amino)methyl)imidazo[1,2-a]pyridin-8-yl)-1-oxoisoindolin-2-yl) piperidine-2,6-dione] | 100 to 500 | < 30 | < 30 | 30 to 50 | < 30 | 30 to 50
8 | CC(NCc1cc(-c2ccc3c(c2)CN(C2CCC(=O)NC2=O)C3=O)c2nccn2c1)c1ccccc1 (stereo not drawn) [Example 45, 3-(1-oxo-5-(6-(((1-phenylethyl)amino)methyl)imidazo[1,2-a]pyridin-8-yl)isoindolin-2-yl) piperidine-2,6-dione] | 100 to 500 | 30 to 50 | < 30 | < 30 | > 50 | < 30
9 | CC(C)(NCc1cc(-c2ccc3c(c2)CN(C2CCC(=O)NC2=O)C3=O)c2nccn2c1)c1ccccc1 (stereo not drawn) [Example 46, 3-(1-oxo-5-(6-(((2-phenylpropan-2-yl)amino)methyl)imidazo[1,2-a]pyridin-8-yl)isoindolin-2-yl) piperidine-2,6-dione] | 100 to 500 | < 30 | < 30 | 30 to 50 | > 50 | > 50
10 | O=C1CCC(N2Cc3cc(-c4cc(CN5CCC(c6ccccc6)CC5)cn5ccnc45)ccc3C2=O)C(=O)N1 (stereo not drawn) [Example 47, 3-(1-oxo-5-(6-((4-phenylpiperidin-1-yl)methyl)imidazo[1,2-a]pyridin-8-yl)isoindolin-2-yl) piperidine-2,6-dione] | < 100 | 30 to 50 | 30 to 50 | < 30 | < 30 | < 30
11 | O=C1CCC(N2Cc3cc(-c4cc(CN5CC(c6ccccc6)C5)cn5ccnc45)ccc3C2=O)C(=O)N1 (stereo not drawn) [Example 48, 3-(1-oxo-5-(6-((3-phenylazetidin-1-yl)methyl)imidazo[1,2-a]pyridin-8-yl)isoindolin-2-yl) piperidine-2,6-dione] | < 100 | < 30 | < 30 | < 30 | < 30 | < 30
12 | O=C1CCC(N2Cc3cc(-c4cc(CN5CCCC5c5ccccc5)cn5ccnc45)ccc3C2=O)C(=O)N1 (stereo not drawn) [Example 49, 3-(1-oxo-5-(6-((2-phenylpyrrolidin-1-yl)methyl)imidazo[1,2-a]pyridin-8-yl)isoindolin-2-yl) piperidine-2,6-dione] | 100 to 500 | < 30 | < 30 | < 30 | < 30 | < 30
